Measured values: patent US10160762B2, “6-alkyl dihydropyrazolopyrimidinone compounds as PDE2 inhibitors” (Merck Sharp & Dohme Corp., priority 2015, dated 2018)

Molecular target: T1, human PDE2A1 (Homo sapiens, UniProt O00408)
T1 construct: GST; purchased BPS Bioscience (San Diego, Calif.) 60020; host or cells: insect cells
Assay: IMAP FP PDE assay, human PDE2A1
Type: biochemical
Conditions: Lab B; read-out: Human PDE2 Ki (nM) Lab B
Summary of the method: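 GST-tagged human PDE2A1 from insect cells; substrate 50 nM FAM-cAMP containing 1000 nM cGMP in Tris pH 7.2/MgCl2/DTT buffer, enzyme giving 20% conversion. 60 min at room temperature, IMAP binding reagent, fluorescence polarization read. Apparent Ki from FP readings using apparent KM 10,000 nM; ten-point 3-fold titrations.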

T1 sequence (O00408 1-920 isoform O00408-2): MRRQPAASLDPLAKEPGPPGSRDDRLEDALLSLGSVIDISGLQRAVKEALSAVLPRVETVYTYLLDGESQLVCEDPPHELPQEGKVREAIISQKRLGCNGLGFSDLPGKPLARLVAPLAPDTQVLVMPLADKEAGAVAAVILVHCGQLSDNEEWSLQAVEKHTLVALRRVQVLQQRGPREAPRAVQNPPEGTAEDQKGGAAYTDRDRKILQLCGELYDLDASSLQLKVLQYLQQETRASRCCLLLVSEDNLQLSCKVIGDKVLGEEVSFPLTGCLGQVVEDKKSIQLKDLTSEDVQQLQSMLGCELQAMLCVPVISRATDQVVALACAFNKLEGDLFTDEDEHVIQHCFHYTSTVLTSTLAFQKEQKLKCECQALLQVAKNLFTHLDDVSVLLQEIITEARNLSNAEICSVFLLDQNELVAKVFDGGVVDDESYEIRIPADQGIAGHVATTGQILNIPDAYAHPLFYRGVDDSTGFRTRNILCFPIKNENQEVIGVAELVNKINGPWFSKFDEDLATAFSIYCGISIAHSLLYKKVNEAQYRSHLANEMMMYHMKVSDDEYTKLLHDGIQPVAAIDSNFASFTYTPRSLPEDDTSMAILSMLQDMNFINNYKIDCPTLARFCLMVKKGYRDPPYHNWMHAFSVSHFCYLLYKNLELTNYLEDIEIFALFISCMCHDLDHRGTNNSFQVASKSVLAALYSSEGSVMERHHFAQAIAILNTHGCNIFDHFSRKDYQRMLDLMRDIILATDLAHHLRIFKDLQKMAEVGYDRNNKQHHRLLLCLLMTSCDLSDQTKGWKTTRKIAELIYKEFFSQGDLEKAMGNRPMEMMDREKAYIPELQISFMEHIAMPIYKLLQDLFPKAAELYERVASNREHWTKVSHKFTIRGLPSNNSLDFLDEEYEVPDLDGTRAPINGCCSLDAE

In order of falling Ki:
1. Cc1nc2c(c(Br)nn2C(C)c2ccc(C(F)(F)F)cc2)c(=O)[nH]1 (single isomer, unassigned) [Example 324]  465 nM
2. CC(c1ccc(C(F)(F)F)cc1)n1nc(-c2nnco2)c2c(=O)[nH]c(CC3CCCC3)nc21 (single isomer, unassigned) [Example 343, (S) or (R)-6-(Cyclopentylmethyl)-3-(1,3,4-oxadiazol-2-yl)-1-(1-(4-(trifluoromethyl)phenyl)ethyl)-1,5-dihydro-4H-pyrazolo[3,4-d] pyrimidin-4-one]  299 nM
3. CC(c1ccc(C(F)(F)F)cc1)n1nc(-c2nnco2)c2c(=O)[nH]c(CC3CC3)nc21 (single isomer, unassigned) [Example 341, (S)- or (R)-6-(Cyclopropylmethyl)-3-(1,3,4-oxadiazol-2-yl)-1-(1-(4-(trifluoromethyl)phenyl)ethyl)-1,5-dihydro-4H-pyrazolo[3,4-d] pyrimidin-4-one]  191 nM
4. COCc1nc2c(c(CO)nn2C(C)c2ccc(S(F)(F)(F)(F)F)cc2)c(=O)[nH]1 (single isomer, unassigned) [Example 317, (R)- or (S)-3-(Hydroxy-methyl)-6-(methoxy-methyl)-1-{1-[4-(pentafluoro-sulfanyl)-phenyl]ethyl}-1,5-dihydro-4H-pyrazolo[3,4-d]pyrimidin-4-one]  150 nM
5. CC(c1ccc(C(F)(F)F)cc1)n1nc(C#N)c2c(=O)[nH]c(CC3CC3)nc21 (single isomer, unassigned) [Example 346]  34 nM
6. Cc1nc2c(c([C@H](C)CO)nn2[C@@H](C)c2ccc(C(F)(F)F)cc2)c(=O)[nH]1 (single isomer, unassigned) [Example 321]  33 nM
7. COc1cccc(Cc2nc3c(c(-c4nnco4)nn3C(C)c3ccc(C(F)(F)F)cc3)c(=O)[nH]2)c1 (single isomer, unassigned) [Example 344, (R)- or (S)-6-(3-Methoxybenzyl)-3-(1,3,4-oxadiazol-2-yl)-1-(1-(4-(trifluoromethyl)phenyl)ethyl)-1,5-dihydro-4H-pyrazolo[3,4-d] pyrimidin-4-one]  26 nM
8. COCc1nc2c(c(CO)nn2C(C)c2ccc(S(F)(F)(F)(F)F)cc2)c(=O)[nH]1 (single isomer, unassigned) [Example 318, (S)- or (R)-3-(Hydroxymethyl)-6-(methoxymethyl)-1-{1-[4-(pentafluorosulfanyl)phenyl]ethyl}-1,5-dihydro-4H-pyrazolo[3,4-d]pyrimidin-4-one]  3.8 nM
9. Cc1nc2c(c(Br)nn2C(C)c2ccc(C(F)(F)F)cc2)c(=O)[nH]1 (single isomer, unassigned) [Example 325]  3.7 nM
10. CC(c1ccc(C(F)(F)F)cc1)n1nc(-c2nnco2)c2c(=O)[nH]c(CC3CCCC3)nc21 (single isomer, unassigned) [Example 342, (R) or (S)-6-(Cyclopentylmethyl)-3-(1,3,4-oxadiazol-2-yl)-1-(1-(4-(trifluoromethyl)phenyl)ethyl)-1,5-dihydro-4H-pyrazolo[3,4-d] pyrimidin-4-one]  2.5 nM
11. CC(c1ccc(C(F)(F)F)cc1)n1nc(-c2nnco2)c2c(=O)[nH]c(CC3CC3)nc21 (single isomer, unassigned) [Example 340, (R)- or (S)-6-(Cyclopropylmethyl)-3-(1,3,4-oxadiazol-2-yl)-1-(1-(4-(trifluoromethyl)phenyl)ethyl)-1,5-dihydro-4H-pyrazolo[3,4-d] pyrimidin-4-one]  2.2 nM
12. Cc1nc2c(c([C@@H](C)CO)nn2[C@@H](C)c2ccc(C(F)(F)F)cc2)c(=O)[nH]1 (single isomer, unassigned) [Example 320]  1.2 nM
13. COc1cccc(Cc2nc3c(c(-c4nnco4)nn3C(C)c3ccc(C(F)(F)F)cc3)c(=O)[nH]2)c1 (single isomer, unassigned) [Example 345, (S)- or (R)-6-(3-Methoxybenzyl)-3-(1,3,4-oxadiazol-2-yl)-1-(1-(4-(trifluoromethyl)phenyl)ethyl)-1,5-dihydro-4H-pyrazolo[3,4-d] pyrimidin-4-one]  0.15 nM
